Reference: ChEMBL document CHEMBL4420080, “Inhibitors of sox18 protein activity for treating angiogenesis- and/or lymphangiogenesis-related diseases” (2018)
Activity calls are given as the source filed them. The rule behind the calls is not given here.

What was measured:
[1] = target: L-type calcium channel (Rattus norvegicus, UniProt P22002+P27732+Q02485); assay: Inhibition of rat L-type calcium channel at 10 uM relative to control; assay type: protein assay
[2] = test system: 4T1.2; assay: Antitumor activity against mouse 4T1.2 cells implanted in BALB/c mouse assessed as median disease latency time at 5 to 50 mg/kg/day for 10 days and measured up to 60 days after tumor inoculation; assay type: functional, organism-based
[3] = test system: 4T1.2; assay: Antitumor activity against mouse 4T1.2 cells implanted in BALB/c mouse assessed as reduction in mean number of lung metastases at 25 mg/kg/day for 10 days measured at day 28 after tumor inoculation relative to control; assay type: functional; design: scale not given: the % may be the effect or the level left
[4] = test system: 4T1.2; assay: Inhibition of tumor induced vascular response in mouse 4T1.2 cells implanted BALB/c mouse assessed as reduction in number of endothelial cells in tumor region at 25 mg/kg/day for 10 days by ERG/EMCN-detection based immunofluorescent staining relative to control; assay type: functional; conditions: 4T1.2, 240 h
[5] = target: Muscarinic acetylcholine receptor M2 (Homo sapiens) (UniProt P08172); assay: Inhibition of human muscarinic M2 receptor at 10 uM relative to control
[6] = test system: Danio rerio; assay: Induction of arterial and venous genes dys-regulation in zebrafish larvae harboring fli1 a:eGFP,-6.5kdrl:mCherry assessed as effect on hey1 gene expression at 1.5 uM dosed starting from 16 hpf and measured at 24 and 48 hpf by qRT-PCR analysis; assay type: functional, organism-based
[7] = test system: Danio rerio; assay: Induction of arterial and venous genes dys-regulation in zebrafish larvae harboring fli1 a:eGFP,-6.5kdrl:mCherry assessed as effect on […] gene expression at 1.5 uM dosed starting from 16 hpf and measured at 24 and 48 hpf by qRT-PCR analysis; assay type: functional, organism-based
[8] = target: Endothelial transcription factor GATA-2 (Homo sapiens) (UniProt P23769); assay: Inhibition of GATA2 in HUVEC assessed as reduction of GATA2 transcriptional activity by genome-wide RNA-seq and ChlP-seq analysis; assay type: cell-based
[9] = target: Sigma non-opioid intracellular receptor 1 (Homo sapiens) (UniProt Q99720); assay: Inhibition of human sigma1 receptor at 10 uM relative to control
Sigma non-opioid intracellular receptor 1 (Homo sapiens), sequence (Q99720 whole entry): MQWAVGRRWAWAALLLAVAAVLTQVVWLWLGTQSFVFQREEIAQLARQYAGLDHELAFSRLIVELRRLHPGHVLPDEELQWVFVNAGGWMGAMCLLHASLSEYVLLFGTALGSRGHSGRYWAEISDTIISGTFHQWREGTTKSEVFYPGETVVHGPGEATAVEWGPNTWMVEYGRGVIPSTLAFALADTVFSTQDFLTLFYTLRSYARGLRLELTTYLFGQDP

[10] = target: Histone deacetylase 3 (Homo sapiens) (UniProt O15379); assay: Inhibition of human HDAC3 at 10 uM relative to control
[11] = species on record: Rattus norvegicus; assay: Inhibition of rat rolipram binding site at 10 uM relative to control
[12] = Plasma concentration in BALB/c mouse xenografted with mouse 4T1.2 cells at 25 mg/kg/day for 10 days measured at day 12; assay type: ADME, organism-based
[13] = test system: Danio rerio; assay: Induction of arterial and venous genes dys-regulation in zebrafish larvae harboring fli1 a:eGFP,-6.5kdrl:mCherry assessed as effect on dll4 gene expression at 1.5 uM dosed starting from 16 hpf and measured at 24 and 48 hpf by qRT-PCR analysis; assay type: functional, organism-based
[14] = target: Protein deacetylase HDAC6 (Homo sapiens) (UniProt Q9UBN7); assay: Inhibition of human HDAC6 at 10 uM relative to control
[15] = target: NAD-dependent protein deacetylase sirtuin-2 (Homo sapiens) (UniProt Q8IXJ6); assay: Inhibition of human Sirtuin2 at 10 uM relative to control
NAD-dependent protein deacetylase sirtuin-2 (Homo sapiens), sequence (Q8IXJ6 whole entry): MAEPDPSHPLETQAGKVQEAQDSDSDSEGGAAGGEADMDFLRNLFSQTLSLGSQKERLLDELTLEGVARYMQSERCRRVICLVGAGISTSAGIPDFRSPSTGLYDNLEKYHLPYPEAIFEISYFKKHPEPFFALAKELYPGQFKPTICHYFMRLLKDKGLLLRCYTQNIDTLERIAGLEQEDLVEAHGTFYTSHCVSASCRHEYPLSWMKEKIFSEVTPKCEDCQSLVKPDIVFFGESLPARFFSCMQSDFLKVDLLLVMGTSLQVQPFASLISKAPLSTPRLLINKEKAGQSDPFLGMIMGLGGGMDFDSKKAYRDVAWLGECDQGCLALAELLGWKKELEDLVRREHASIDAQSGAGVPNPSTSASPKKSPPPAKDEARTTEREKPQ

[16] = test system: Danio rerio; assay: Induction of arterial and venous genes dys-regulation in zebrafish larvae harboring fli1 a:eGFP,-6.5kdrl:mCherry assessed as effect on hey2 gene expression at 1.5 uM dosed starting from 16 hpf and measured at 24 and 48 hpf by qRT-PCR analysis; assay type: functional, organism-based
[17] = target: Transcription factor SOX-9 (Homo sapiens) (UniProt P48436); assay: Inhibition of SOX9 in HUVEC assessed as reduction of SOX9-SOX9 interactions up to 200 uM incubated for 45 mins by Alpha-screen assay; assay type: cell-based
Transcription factor SOX-9 (Homo sapiens), sequence (P48436 whole entry): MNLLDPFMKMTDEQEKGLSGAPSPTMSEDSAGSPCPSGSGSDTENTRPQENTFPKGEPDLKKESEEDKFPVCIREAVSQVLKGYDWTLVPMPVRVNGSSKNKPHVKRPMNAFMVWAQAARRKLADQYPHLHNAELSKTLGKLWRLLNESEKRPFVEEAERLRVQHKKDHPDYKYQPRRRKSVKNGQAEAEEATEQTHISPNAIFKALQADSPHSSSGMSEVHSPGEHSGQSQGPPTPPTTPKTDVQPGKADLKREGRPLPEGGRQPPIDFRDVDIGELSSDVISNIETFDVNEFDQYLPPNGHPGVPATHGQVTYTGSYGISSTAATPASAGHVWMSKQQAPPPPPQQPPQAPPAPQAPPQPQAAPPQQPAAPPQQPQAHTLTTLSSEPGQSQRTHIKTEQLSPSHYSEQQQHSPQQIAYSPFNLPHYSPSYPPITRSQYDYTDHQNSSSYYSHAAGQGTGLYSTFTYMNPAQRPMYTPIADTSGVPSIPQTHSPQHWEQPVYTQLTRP

[18] = target: GABA-A receptor; anion channel (Rattus norvegicus) (UniProt O09028+P15431+P18506+P18508+P19969+P20236+P23574+P23576+P28471+P28473+P30191+P62813+P63079+P63138+Q91ZM7+Q9ES14); assay: Inhibition of rat GABAA channel muscimol binding site at 10 uM relative to control; assay type: protein-complex assay
[19] = test system: Danio rerio; assay: Induction of arterial and venous genes dys-regulation in zebrafish larvae harboring fli1 a:eGFP,-6.5kdrl:mCherry assessed as effect on efnb2a gene expression at 1.5 uM dosed starting from 16 hpf and measured at 24 and 48 hpf by qRT-PCR analysis; assay type: functional, organism-based
[20] = test system: Danio rerio; assay: Induction of arterial and venous genes dys-regulation in zebrafish larvae harboring fli1 a:eGFP,-6.5kdrl:mCherry assessed as effect on notch1b gene expression at 1.5 uM dosed starting from 16 hpf and measured at 24 and 48 hpf by qRT-PCR analysis; assay type: functional, organism-based
[21] = target: Beta-2 adrenergic receptor (Homo sapiens) (UniProt P07550); assay: Inhibition of human adrenergic beta2 receptor at 10 uM relative to control
Beta-2 adrenergic receptor (Homo sapiens), sequence (P07550 whole entry, looked up): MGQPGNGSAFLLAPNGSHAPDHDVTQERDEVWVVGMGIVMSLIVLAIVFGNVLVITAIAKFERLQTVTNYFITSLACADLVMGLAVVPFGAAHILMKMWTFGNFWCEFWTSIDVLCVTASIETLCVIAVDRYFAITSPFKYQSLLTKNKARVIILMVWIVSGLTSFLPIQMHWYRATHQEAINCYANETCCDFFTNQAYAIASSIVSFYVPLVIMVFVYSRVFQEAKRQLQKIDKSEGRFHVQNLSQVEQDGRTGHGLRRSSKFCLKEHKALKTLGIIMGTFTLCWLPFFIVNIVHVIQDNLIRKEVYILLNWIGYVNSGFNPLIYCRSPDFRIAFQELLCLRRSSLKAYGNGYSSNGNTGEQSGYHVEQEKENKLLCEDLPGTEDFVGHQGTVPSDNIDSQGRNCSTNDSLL

[22] = target: Transcription factor SOX-9 (Homo sapiens) (UniProt P48436); assay: Inhibition of SOX9 (unknown origin) expressed in African green monkey COS7 cells assessed as reduction in SOX9 transcriptional activity at; assay type: cell-based
[23] = test system: 4T1.2; assay: Antitumor activity against mouse 4T1.2 cells implanted in BALB/c mouse assessed as median disease latency time at 25 mg/kg/day for 10 days (Rvb =33 days); assay type: functional
[24] = target: Alpha-2A adrenergic receptor (Homo sapiens) (UniProt P08913); assay: Inhibition of human adrenergic alpha2A receptor at 10 uM relative to control
[25] = target: D(1A) dopamine receptor (Homo sapiens) (UniProt P21728); assay: Inhibition of human dopamine D1 receptor at 10 uM relative to control
[26] = target: Transcription factor SOX-18 (Homo sapiens, UniProt P35713); assay: Inhibition of SOX18 in HUVEC assessed as reduction of SOX18-ESR1 interactions incubated for 45 mins by Alpha-screen assay; assay type: cell-based
Transcription factor SOX-18, sequence (P35713 whole entry): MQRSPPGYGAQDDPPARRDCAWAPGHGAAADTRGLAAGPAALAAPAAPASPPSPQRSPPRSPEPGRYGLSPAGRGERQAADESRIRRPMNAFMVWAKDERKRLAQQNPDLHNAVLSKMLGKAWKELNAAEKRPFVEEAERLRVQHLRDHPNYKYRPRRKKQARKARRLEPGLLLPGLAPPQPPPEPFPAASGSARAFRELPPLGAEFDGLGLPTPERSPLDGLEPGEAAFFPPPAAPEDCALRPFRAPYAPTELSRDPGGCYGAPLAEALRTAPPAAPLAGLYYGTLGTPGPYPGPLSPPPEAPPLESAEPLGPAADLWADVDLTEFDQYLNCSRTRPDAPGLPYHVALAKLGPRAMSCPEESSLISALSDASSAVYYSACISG

[27] = target: Cannabinoid receptor 1 (Homo sapiens) (UniProt P21554); assay: Inhibition of human CB1 receptor at 10 uM relative to control
Cannabinoid receptor 1 (Homo sapiens), sequence (P21554 whole entry): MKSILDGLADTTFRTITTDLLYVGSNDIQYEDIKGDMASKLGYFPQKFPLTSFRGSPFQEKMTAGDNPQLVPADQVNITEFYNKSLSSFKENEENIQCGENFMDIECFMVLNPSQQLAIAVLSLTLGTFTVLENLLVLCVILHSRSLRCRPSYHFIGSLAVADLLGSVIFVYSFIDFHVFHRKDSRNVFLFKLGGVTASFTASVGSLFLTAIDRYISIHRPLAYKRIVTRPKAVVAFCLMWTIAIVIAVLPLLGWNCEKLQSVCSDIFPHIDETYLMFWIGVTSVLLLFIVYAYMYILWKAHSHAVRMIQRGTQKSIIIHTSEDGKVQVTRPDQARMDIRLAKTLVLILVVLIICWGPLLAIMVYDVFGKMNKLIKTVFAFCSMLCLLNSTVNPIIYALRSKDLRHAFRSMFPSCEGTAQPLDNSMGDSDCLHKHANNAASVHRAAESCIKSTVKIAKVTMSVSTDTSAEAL

[28] = target: Alpha-1B adrenergic receptor (Rattus norvegicus) (UniProt P15823); assay: Inhibition of rat adrenergic alpha1B receptor at 10 uM relative to control
Alpha-1B adrenergic receptor (Rattus norvegicus), sequence (P15823 whole entry): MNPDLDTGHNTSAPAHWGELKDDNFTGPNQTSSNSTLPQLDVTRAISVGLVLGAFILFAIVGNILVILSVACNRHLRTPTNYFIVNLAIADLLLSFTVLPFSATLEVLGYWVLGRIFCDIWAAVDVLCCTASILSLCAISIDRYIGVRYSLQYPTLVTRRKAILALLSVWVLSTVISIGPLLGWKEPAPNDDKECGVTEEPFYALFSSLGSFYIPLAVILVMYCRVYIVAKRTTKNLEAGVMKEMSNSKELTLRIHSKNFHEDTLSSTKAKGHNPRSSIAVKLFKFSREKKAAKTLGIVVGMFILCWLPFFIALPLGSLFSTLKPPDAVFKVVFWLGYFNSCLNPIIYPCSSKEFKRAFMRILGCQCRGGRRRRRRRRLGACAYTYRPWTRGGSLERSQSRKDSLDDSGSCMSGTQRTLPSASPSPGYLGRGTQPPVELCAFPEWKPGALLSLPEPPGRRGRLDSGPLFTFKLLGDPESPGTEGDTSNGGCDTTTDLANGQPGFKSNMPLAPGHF

[29] = test system: Cricetinae; assay: Inhibition of hamster KATP channel at 10 uM relative to control
[30] = target: Histamine H1 receptor (Homo sapiens) (UniProt P35367); assay: Inhibition of human histamine H1 receptor at 10 uM relative to control
Histamine H1 receptor (Homo sapiens), sequence (P35367 whole entry): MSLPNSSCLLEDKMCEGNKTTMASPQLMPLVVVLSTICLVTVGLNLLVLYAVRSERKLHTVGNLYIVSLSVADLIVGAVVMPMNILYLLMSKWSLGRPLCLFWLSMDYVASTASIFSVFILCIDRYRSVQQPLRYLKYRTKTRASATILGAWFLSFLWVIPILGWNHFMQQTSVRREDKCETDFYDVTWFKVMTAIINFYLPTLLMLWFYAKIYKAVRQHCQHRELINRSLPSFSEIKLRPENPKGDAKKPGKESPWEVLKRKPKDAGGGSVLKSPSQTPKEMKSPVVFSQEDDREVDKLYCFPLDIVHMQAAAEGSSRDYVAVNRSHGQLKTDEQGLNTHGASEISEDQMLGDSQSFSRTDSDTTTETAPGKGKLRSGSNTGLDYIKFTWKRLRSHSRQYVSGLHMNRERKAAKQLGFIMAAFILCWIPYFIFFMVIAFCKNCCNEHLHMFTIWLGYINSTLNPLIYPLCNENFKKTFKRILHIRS

[31] = test system: 4T1.2; assay: Inhibition of tumor induced vascular response in mouse 4T1.2 cells implanted BALB/c mouse assessed as reduction in blood vessel coverage at 25 mg/kg/day for 10 days by bright field microscopy; assay type: functional, organism-based
[32] = target: 5-hydroxytryptamine receptor 2B (Homo sapiens) (UniProt P41595); assay: Inhibition of human 5HT2B receptor at 10 uM relative to control
5-hydroxytryptamine receptor 2B (Homo sapiens), sequence (P41595 whole entry): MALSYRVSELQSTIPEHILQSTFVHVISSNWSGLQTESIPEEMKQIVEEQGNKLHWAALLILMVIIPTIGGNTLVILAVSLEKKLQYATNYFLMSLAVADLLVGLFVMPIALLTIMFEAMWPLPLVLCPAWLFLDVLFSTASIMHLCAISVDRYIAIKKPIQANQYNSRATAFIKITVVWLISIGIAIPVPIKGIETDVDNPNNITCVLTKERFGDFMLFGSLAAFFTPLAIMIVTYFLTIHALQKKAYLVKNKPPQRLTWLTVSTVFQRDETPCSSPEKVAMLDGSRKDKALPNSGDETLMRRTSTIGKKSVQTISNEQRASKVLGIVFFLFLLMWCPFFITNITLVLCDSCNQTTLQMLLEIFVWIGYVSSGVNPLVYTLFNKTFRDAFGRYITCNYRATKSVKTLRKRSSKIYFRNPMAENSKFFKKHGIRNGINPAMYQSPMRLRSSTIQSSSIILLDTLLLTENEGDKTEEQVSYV

[33] = species on record: Mus musculus; assay: Inhibition of mouse phorbol ester receptor at 10 uM relative to control
[34] = target: Alpha-1A adrenergic receptor (Rattus norvegicus) (UniProt P43140); assay: Inhibition of rat adrenergic alpha1A receptor at 10 uM relative to control
Alpha-1A adrenergic receptor (Rattus norvegicus), sequence (P43140 whole entry): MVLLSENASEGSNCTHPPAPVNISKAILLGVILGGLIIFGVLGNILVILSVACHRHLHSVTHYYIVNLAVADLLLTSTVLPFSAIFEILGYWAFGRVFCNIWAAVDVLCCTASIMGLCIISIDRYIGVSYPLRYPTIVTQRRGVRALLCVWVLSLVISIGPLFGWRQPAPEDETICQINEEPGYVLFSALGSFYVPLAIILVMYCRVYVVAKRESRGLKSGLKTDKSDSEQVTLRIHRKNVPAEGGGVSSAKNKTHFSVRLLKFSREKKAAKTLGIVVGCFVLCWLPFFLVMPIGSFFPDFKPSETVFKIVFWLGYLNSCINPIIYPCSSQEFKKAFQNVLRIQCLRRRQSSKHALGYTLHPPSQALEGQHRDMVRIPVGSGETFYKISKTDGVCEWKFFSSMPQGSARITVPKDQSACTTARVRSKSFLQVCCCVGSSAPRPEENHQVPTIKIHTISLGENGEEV

[35] = target: Acetylcholine receptor subunit alpha (Homo sapiens) (UniProt P02708); assay: Inhibition of human nAChR alpha1 channel at 10 uM relative to control
Acetylcholine receptor subunit alpha (Homo sapiens), sequence (P02708 whole entry): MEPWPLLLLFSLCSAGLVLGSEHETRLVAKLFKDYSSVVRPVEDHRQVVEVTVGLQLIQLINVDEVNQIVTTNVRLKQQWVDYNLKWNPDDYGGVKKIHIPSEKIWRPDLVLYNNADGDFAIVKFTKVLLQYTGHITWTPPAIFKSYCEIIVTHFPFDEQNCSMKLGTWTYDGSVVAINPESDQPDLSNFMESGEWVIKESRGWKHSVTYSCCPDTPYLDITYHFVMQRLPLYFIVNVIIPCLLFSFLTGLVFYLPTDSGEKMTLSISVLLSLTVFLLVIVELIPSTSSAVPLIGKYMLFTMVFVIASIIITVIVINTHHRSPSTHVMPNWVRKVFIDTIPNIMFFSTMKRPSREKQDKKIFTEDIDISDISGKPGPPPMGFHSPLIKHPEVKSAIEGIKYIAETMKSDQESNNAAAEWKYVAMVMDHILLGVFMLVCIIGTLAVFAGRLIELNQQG

O=C(O)c1c(O)cccc1CCc1ccc2ccccc2c1
inhibition at 10 µM [1]: -8%
Activity [2]: Dose-dependent effect
Activity [3]: 67%
inhibition in vivo at 25 mg/kg/day [4]: 48%
inhibition [5]: 13%
Activity [6]: Active
Activity [7]: Active
inhibition [8]: inactive
inhibition [9]: -6%
inhibition [10]: -4.8%
inhibition [11]: 1%
concentration at 240 h [12]: 55.2 µg/mL
Activity [13]: Active
inhibition [14]: 1.1%
inhibition [15]: -5.2%
Activity [16]: Active
inhibition [17]: inactive
inhibition [18]: 6%
Activity [19]: Active
Activity [20]: Active
inhibition [21]: 2%
inhibition [22]: inactive
Time [23]: 33 days
inhibition [24]: 0%
inhibition [25]: 12%
IC50 [26]: Not Active
inhibition [27]: 3%
inhibition [28]: -1%
inhibition [29]: 10%
inhibition [30]: 2%
inhibition [31]: Active
inhibition [32]: -2%
inhibition [33]: 15%
inhibition [34]: 0%
inhibition [35]: -4%
